The numbers were not newly measured in the CATMoS acute toxicity set (Mansouri et al. 2021), which cites them from elsewhere.

Several values for one entry are separate records, joined by “and”; a condition that tells them apart may be missing. Equal entries are not always repeated.

This series can be described thus: rat acute oral toxicity. Conditions: in vivo. An excerpt: […]The data set underlying the modeling effort for this project was initially compiled by NICEATM and U.S. EPA’s CCTE. Briefly, LD50 data were collected from rat acute oral systemic toxicity tests, including limit tests, ranges/confidence intervals, and discrete LD50 values. The full data set included 21,200 LD50 entries for 15,688 substances. […] Data were reviewed to ensure that LD50 values with obvious errors in the extracted data such as unit conversion errors (e.g., comma and decimal separator misplacements) were either fixed or removed. After this review, 16,209 LD50 values remained. Many of the chemicals represented had multiple LD50 entries, requiring that a single representative value per Chemical Abstracts Service Registry Number (CASRN) identifier be defined to facilitate modeling efforts. Based on ATWG feedback and to define the representative LD50 as a protective value while accounting for the distribution across multiple LD50s, the median of the lowest quartile was computed using only discrete LD50 values (omitting limit test data and range and confidence interval data). A detailed summary of the data compilation is available online on the NICEATM webpage dedicated to the collaborative modeling project (NTP 2020).
[…][…] For categorical designations, limit test and range/confidence interval LD50 data were integrated wherever possible. As such, the number of chemicals with end point values/calls varies across the modeling end points (Table 3) based on whether chemicals had representative LD50 values and/or other data. If a chemical had both, the representative value was used to determine categorical calls rather than limit test data. Some data were useable only for certain end points and categories depending on the thresholds. For example, ranges that spanned multiple hazard categories were considered only for the binary (very toxic/nontoxic) end points and omitted from rendering a determination for hazard category assignment.
[…]The final data set comprising 11,992 chemicals was split into training and evaluation sets […], respectively. This process was performed semirandomly by ordering chemicals based on the five end points (categorical and continuous LD50 values) and partitioning every fourth record into the evaluation set accordingly. This approach was taken to ensure an equivalent distribution of the LD50 values and the different hazard categories between the training and the evaluation sets without supervised sampling of the chemicals based on structures (Figure 1A). The sources of the chemical structures were also kept equivalent between the two sets, with chemical structures obtained from DSSTox, being the highest quality, representing over 75% of each set (Figure 1B).
Usually LD50 stands for the dose at which mortality reaches 50%. As for `Cc1cncc(CN2CCC(=C3c4ccc(Cl)cc4CCc4cccnc43)CC2)c1`, the LD50 was 1000 mg/kg.
In the case of `C=CC(=O)NC(OC)C(=O)OC` (stereo not drawn), the LD50 is 2090 mg/kg.
As to `OCc1cccc(Oc2ccccc2)c1`, the 50% lethal dose (LD50) is 1500 mg/kg.
On to `CCCCCCCCCCCC[n+]1ccc2ccccc2c1`, for which the LD50 is 230 mg/kg.
For `CCc1c(C)nc2c(C)cccn2c1=O`, the LD50 was 820 mg/kg.
As to `CCCCC(CC)COC(C[n+]1ccccc1)c1ccc(Cl)c(Cl)c1` (stereo not drawn), the 50% lethal dose (LD50) was 250 mg/kg.
Turning to `CC(C(=O)COC(=O)c1ccncc1)c1ccc(-c2ccccc2F)cc1` (stereo not drawn), the LD50 was 1170 mg/kg.
Consider `C=C(CC(C)(C)c1ccccc1)c1ccccc1`, for which the median lethal dose (LD50) was 300 mg/kg.
Consider `CCOP(=S)(OCC)SCN1C(=O)c2ccccc2C1=O`, for which the LD50 was 43 mg/kg.
`CC(C)OCCCO`: the LD50 was 4000 mg/kg.
For `C1OCC(COCC2COCO2)O1` (stereo not drawn), the LD50 is 5150 mg/kg.
`CCCCc1c(C)nc2ccccn2c1=O`: the LD50 was 1100 mg/kg.
As for `CCc1c2c(nc3ccc(OC(=O)N4CCC(N5CCCCC5)CC4)cc13)-c1cc3c(c(=O)n1C2)COC(=O)C3(O)CC` (stereo not drawn), the LD50 was 867 mg/kg.
`CC(C)(C)CC(C)(C)Nc1ncnc(N(CCCCCCNC2CC(C)(C)NC(C)(C)C2)C2CC(C)(C)NC(C)(C)C2)n1`: the LD50 is 9910 mg/kg.
Regarding `CC(C)c1ccc(NC(=O)N(C)C)cc1`, the median lethal dose (LD50) was 1830 mg/kg.
Regarding `ClC(COCC(Cl)C(Cl)(Cl)Cl)C(Cl)(Cl)Cl` (stereo not drawn), the LD50 was 3630 mg/kg.
Turning to `CCC=CC=CC=O`, the LD50 is 1150 mg/kg.
With `COc1cc2nc(N3CCN(C(=O)c4ccco4)CC3)nc(N)c2cc1OC`, the LD50 is 1950 mg/kg.
For `S=C(Cl)Cl`, the LD50 is 929 mg/kg.
For the compound `CC(=O)Oc1ccc(-c2ccc(F)cc2)cc1C(=O)O`, the LD50 was 185 mg/kg.
On to `CCOC(=O)[C@H](CCc1ccccc1)N[C@@H](C)C(=O)N1CCC[C@H]1C(=O)O`, for which the LD50 was 2970 mg/kg.
With `O=C1C(Cl)=C(NC(=O)C(Cl)Cl)C(=O)c2ccccc21`, the LD50 is 11700 mg/kg.
Turning to `O=C(OCC(O)C1COc2ccccc2O1)N1CCOCC1` (stereo not drawn), the LD50 is 1500 mg/kg.
Consider `Cc1c[nH]cn1`, for which the LD50 is 751 mg/kg.
On to `C=CC(=O)N(CC)CC`, for which the LD50 was 1420 mg/kg.
Take `NNC(=O)CSc1cc(Oc2ccc(F)cc2)ncn1`: the LD50 is 400 mg/kg.
Turning to `CCN1CCCC1CNC(=O)c1cc(Cl)cc(Cl)c1OCc1ccccc1` (stereo not drawn), the LD50 is 576 mg/kg.
On to `CCCCc1ccc(O)cc1O`, for which the LD50 was 500 mg/kg.
As to `CC[C@@H](C(=O)O)[C@@H]1O[C@@H]([C@@H](C)[C@H](O)[C@H](C)C(=O)[C@H](CC)[C@H]2O[C@]3(C=C[C@@H](O)[C@]4(CC[C@@](C)([C@H]5CC[C@](O)(CC)[C@H](C)O5)O4)O3)[C@H](C)C[C@@H]2C)[C@@H](C)C[C@@H]1C`, the LD50 is 18.5 mg/kg.
As for `c1ccc(N(c2ccccc2)c2ccccc2)cc1`, the LD50 is 3200 mg/kg.
Turning to `CCOP(=O)(OCC)ON1C(=O)c2cccc3cccc(c23)C1=O`, the LD50 is 70 mg/kg.
Regarding `Cc1ccc([N+](=O)[O-])cc1N`, the LD50 was 574 mg/kg.
Take `Cc1ccccc1O`: the LD50 was 1860 mg/kg.
With `COc1c(O)cc(Cl)c(Cl)c1Cl`, the LD50 is 2980 mg/kg.
As for `CC(C)C(=O)C(C)C`, the 50% lethal dose (LD50) was 3540 mg/kg.
In the case of `O=C1CN2CCOC2(c2ccccc2Cl)c2cc(Cl)ccc2N1` (stereo not drawn), the median lethal dose (LD50) was 1780 mg/kg.
As for `CC(C(=O)O)c1ccc(-c2ccccc2)c(F)c1` (stereo not drawn), the LD50 is 117 mg/kg.
With `FC1(F)C(Cl)=C(Cl)C(F)(F)C1(F)F`, the LD50 was 280 mg/kg.
With `CCN(N=O)C(C)C`, the LD50 was 1100 mg/kg.
Take `CCC(O)CCO` (stereo not drawn): the LD50 is 20000 mg/kg.
As for `C[C@@H](N)[C@@H](O)c1ccccc1`, the LD50 is 1490 mg/kg.
Take `Cn1c(=O)c2c(ncn2CC(=O)O)n(C)c1=O`: the LD50 is 900 mg/kg.
`CCCCCCCCCCCO`: the LD50 is 3000 mg/kg.
On to `O=COCC=Cc1ccccc1`, for which the LD50 was 2900 mg/kg.
As to `COC(C)N(C)N=O` (stereo not drawn), the median lethal dose (LD50) was 240 mg/kg.
In the case of `CCOC(=O)Nc1cccc(OC(=O)Nc2ccccc2)c1`, the LD50 was 9600 mg/kg.
`COc1ccc(SP(=S)(CCl)OC(C)C)cc1` (stereo not drawn): the LD50 is 108 mg/kg.
With `CC(=Nc1c(I)cc(I)c(C(=O)NCC(C)C(=O)O)c1I)N1CCOCC1` (stereo not drawn), the LD50 was 15000 mg/kg and 7000 mg/kg.
As to `CC(=O)C(N=Nc1ccc(-c2ccc(N=NC(C(C)=O)C(=O)Nc3ccc(C)cc3)c(Cl)c2)cc1Cl)C(=O)Nc1ccc(C)cc1` (stereo not drawn), the LD50 was 2230 mg/kg.
Take `O=S1(=O)CCCO1`: the LD50 is 100 mg/kg.
Turning to `COc1ccc(C[C@H]2NC[C@H](O)[C@H]2OC(C)=O)cc1`, the LD50 is 72 mg/kg.
For `CC(C)[N+](C)(CCC(C(N)=O)(c1ccccc1)c1ccccc1)C(C)C`, the LD50 is 1030 mg/kg.
In the case of `CC[Se][Se]CC`, the LD50 is 90 mg/kg.
